Results from patent EP4775580A1, “COMPOUND, PHARMACEUTICAL COMPOSITION COMPRISING SAME, AND USE THEREOF” (Euregen Biopharma Co., Ltd., priority 2023, dated 2025).
Like-named read-outs stand apart in the source and are kept apart here.

Legend:
Menin-T349M = target: T1, Menin-T349M (Homo sapiens, UniProt O00255, T344M); assay: Fluorescence polarization assay of Menin binding to MLL peptide, T349M mutant; conditions: FP, 8 nM Menin, 4 nM MLL peptide
T1 sequence (O00255 1-615 isoform O00255-1 T349M): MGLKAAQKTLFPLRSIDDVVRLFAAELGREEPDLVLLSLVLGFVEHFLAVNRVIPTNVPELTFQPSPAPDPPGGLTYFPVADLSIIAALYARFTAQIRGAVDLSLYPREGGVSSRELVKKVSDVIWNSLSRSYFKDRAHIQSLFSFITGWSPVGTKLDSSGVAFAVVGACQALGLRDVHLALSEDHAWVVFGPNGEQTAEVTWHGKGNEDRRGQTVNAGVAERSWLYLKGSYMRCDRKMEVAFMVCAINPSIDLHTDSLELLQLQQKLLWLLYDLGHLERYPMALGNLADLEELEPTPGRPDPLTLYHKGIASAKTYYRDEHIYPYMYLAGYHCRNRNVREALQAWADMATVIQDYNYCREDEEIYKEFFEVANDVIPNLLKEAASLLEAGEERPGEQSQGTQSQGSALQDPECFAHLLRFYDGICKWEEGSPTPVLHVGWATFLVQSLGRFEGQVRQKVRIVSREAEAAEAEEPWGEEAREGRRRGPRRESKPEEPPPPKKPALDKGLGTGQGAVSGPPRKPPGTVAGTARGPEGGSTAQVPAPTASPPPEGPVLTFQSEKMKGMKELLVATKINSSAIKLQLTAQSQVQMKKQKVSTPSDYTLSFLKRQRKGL
Excerpt: • 1. Objective: To evaluate the inhibitory activity of compounds against wild-type Menin protein (Menin-WT) and its mutant variants (Menin-M327V, Menin-M327I, Menin-T349M, Menin-S160T, Menin-S160C, Menin-G331R, and Menin-G331D). • 2. Experimental Principle: The experiment employed fluorescence polarization (FP) to detect the binding of wild-type Menin protein and its mutant variants to MLL peptide. In the absence of inhibitors, binding of wild-type Menin protein and its mutant variants to MLL peptide generates a high FP signal; upon addition of inhibitors, the binding between Menin proteins and MLL peptide is disrupted, resulting in a low FP signal. • 3. Experimental Materials: Final concentration of wild-type Menin protein and its mutant variants: 8 nM; final concentration of MLL peptide: 4 nM. Assay buffer: 50 mM Tris-HCl (pH 8.0), 120 mM NaCl, 0.005% CA-630, 2 mM DTT. • 4. […] The plate was centrifuged at 1000 rpm for 60 seconds. Subsequently, 10 µL of MLL peptide was added to each assay well. The plate was centrifuged at 1000 rpm for 60 seconds and sealed with a sealing membrane. After incubation at 23°C for 60 minutes, the plate was read using a PerkinElmer Envision reader. Data Analysis: [formula]
Curve fitting: XLFIT software was used for curve fitting, employing a four-parameter logistic model with percent inhibition versus log(compound concentration) as variables.

hERG potassium channel = target: T2, hERG potassium channel (Homo sapiens, UniProt Q12809); assay: Inhibition of hERG current, manual whole-cell patch-clamp in HEK293 cells stably transfected with hERG; type: cell-based
T2 construct: expressed in transfected cells; host or cells: HEK293 (HEK-293-hERG)
T2 sequence (Q12809 whole entry): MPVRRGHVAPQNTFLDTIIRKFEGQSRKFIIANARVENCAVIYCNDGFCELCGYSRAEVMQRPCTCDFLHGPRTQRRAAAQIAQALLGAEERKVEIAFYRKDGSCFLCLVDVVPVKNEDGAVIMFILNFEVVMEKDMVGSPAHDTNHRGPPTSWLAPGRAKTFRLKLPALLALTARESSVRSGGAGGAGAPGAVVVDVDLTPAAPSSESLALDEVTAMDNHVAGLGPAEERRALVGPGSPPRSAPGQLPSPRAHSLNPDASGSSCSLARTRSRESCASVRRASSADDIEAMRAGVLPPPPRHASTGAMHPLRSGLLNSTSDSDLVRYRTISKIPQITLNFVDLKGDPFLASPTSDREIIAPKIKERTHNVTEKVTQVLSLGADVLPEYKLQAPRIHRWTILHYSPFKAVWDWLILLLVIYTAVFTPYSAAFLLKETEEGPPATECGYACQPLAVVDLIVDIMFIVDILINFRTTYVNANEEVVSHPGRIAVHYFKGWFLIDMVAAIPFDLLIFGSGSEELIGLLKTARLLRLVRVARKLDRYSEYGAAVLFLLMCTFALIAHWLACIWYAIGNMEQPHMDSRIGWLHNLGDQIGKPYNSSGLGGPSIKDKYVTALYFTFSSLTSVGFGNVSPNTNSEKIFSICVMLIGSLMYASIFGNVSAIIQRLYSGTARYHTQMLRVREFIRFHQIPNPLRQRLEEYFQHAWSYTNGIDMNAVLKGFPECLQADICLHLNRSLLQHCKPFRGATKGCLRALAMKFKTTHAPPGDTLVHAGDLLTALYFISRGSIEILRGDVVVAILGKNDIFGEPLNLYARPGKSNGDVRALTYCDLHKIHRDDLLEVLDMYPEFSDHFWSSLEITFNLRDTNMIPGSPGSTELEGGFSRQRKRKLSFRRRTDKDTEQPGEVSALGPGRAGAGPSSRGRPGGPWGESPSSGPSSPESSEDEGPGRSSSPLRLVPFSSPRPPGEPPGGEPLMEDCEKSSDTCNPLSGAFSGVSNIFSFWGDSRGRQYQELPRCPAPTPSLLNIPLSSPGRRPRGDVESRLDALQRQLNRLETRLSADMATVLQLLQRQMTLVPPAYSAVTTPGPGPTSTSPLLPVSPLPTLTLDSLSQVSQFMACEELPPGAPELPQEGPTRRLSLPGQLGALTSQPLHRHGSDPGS
Excerpt: • 1. Objective: To evaluate the inhibitory effect of test compounds on hERG current in HEK293 cells stably transfected with the hERG potassium channel using manual patch-clamp technique. • 2. Experimental Materials: The test compound was Compound 3 prepared according to the examples of the present invention; the positive control compound SNDX-5613 was purchased from Chengdu Zhihui Zhongxin Biomedical Co., Ltd.; HEK293 cells were obtained from Procell (Cat. #CL-0001). […]
Following establishment of the whole-cell recording configuration, the holding potential was maintained at -80 mV. […] Once the recorded hERG current stabilized, compounds were administered via continuous extracellular perfusion from low to high concentrations (0.3, 1, 3, 10, and 30 µmol/L). […]
Data Acquisition and Analysis: Experimental data were acquired using Clampex software and analyzed using Clampfit software. First, the current following each compound concentration was normalized to the control current ((Peak tail current (compound))/(Peak tail current (blank))) × 100 [formula] , then the inhibition rate for each compound concentration was calculated (1−(Peak tail current (compound))/(Peak tail current (blank))) × 100 [formula] . […]

Structure (SMILES)	IC50 (Menin-T349M) [µM]	IC50 (hERG potassium channel; HEK293-hERG cells, manual patch-clamp, 0.3-30 µmol/L, room temperature, read-out: IC50 (hERG tail current)) [µM]	IC50 (hERG potassium channel) [µM]
CCN(C(=O)c1cc(F)ccc1Oc1cncnc1N1CC2(CCN(C[C@H]3CC[C@H](NS(=O)(=O)CC)CC3)CC2)C1)C(C)C [SNDX-5613, revumenib]	0.271	7.59	–
CCN(C(=O)c1cc(F)ccc1N1CCN([C@@H]2CCN([C@H](CCCN(C)CCOC)C(C)C)C2)c2ncncc21)C(C)C [Example 3]	0.0467	–	> 30
